Here are results for one compound from ChEMBL document CHEMBL2424659, “Comparative QSAR and pharmacophore analysis for a series of 2,4-dihydro-3H-1,2,4-triazol-3-ones derivatives as angiotensin II AT1 receptor antagonists” (Med Chem Res, 2013).

Each structure is given as a SMILES string.

By IC50 is commonly meant the concentration that gives 50% inhibition. A high value points to a need for much substance.

The experiment concerns the target T1, Type-1 angiotensin II receptor (Oryctolagus cuniculus, UniProt P34976).
T1 sequence (P34976 whole entry): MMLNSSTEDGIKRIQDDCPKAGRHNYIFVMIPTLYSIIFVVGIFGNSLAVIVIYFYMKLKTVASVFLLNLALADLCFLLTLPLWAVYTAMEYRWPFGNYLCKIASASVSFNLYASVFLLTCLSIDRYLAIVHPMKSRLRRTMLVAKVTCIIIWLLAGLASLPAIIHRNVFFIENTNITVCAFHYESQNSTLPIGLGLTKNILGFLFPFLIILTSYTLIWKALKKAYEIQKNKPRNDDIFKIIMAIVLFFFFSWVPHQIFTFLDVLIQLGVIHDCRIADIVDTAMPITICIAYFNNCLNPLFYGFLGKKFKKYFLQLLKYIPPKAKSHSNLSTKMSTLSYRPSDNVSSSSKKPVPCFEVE
The experiment can be described thus: Antagonist activity at AT1 receptor in rabbit aorta membranes. The experiment is classed as cell membranes, Membrane.

For `CCCCC(=O)Nc1ccc(C)c(-n2nc(CCCC)n(Cc3ccc(-c4ccccc4S(=O)(=O)NC(=O)c4ccccc4Cl)cc3)c2=O)c1`, 24 nM corresponded to half-maximal inhibition (IC50).
